Test results: publication PMC10568017, “A quest for the stereo-electronic requirements for selective agonism for the neurotrophin receptors TrkA and TrkB in 17-spirocyclic-dehydroepiandrosterone derivatives” (Frontiers in Molecular Neuroscience, 2023)

B1: brain-derived neurotrophic factor (protein, UniProt P23560 19-247, looked up)
Neurotrophic factor BDNF …: APMKEANIRGQGGLAYPGVRTHGTLESVNGPKAGSRGLTSLADTFEHVIEELLDEDQKVRPNEENNKDADLYTSRVMLSSQVPLEPPLLFLLEEYKNYLDAANMSMRVRRHSDPARRGELSVCDSISEWVTAADKKTAVDMSGGTVTVLEKVPVSKGQLKQYFYETKCNPMGYTKEGCRGIDKRHWNSQCRTTQSYVRALTMDSKKRIGWRFIRIDTSCVCTLTIKRGR
notes: native neurotrophin ligand of the TrkB receptor, positive control at 500 ng/mL

What was measured:
[1] = tested on: NIH-3T3 TrkB-expressing cell line; experiment: CellTox Green cytotoxicity assay in NIH-3T3 cells stable transfected with TrkB under serum deprivation; format: cell-based; settings: compound 1 μM, 24 h, after 24 h serum starvation; BDNF 500 ng/mL as control
Method: (§1) We tested compounds on three cellular systems, primary cortical astrocytes from 2-day-old mice (as a natively TrkB-expressing neuronal population), and NIH-3T3 fibroblasts stable transfected with TrkB and NIH-3T3 naïve cells. Cells were grown with high-glucose DMEM medium supplemented with 10% fetal bovine serum (FBS), 100 μg/mL streptomycin, and 100 units/mL penicillin at 37°C in a humidified 5% CO2 atmosphere. Phosphorylation results presented here are in primary astrocytes, and cell toxicity assay results are in NIH-3T3 stable transfected cells with TrkB.
NIH-3T3 stable transfected cells with TrkB were plated in 96-well plates at a density of 10,000 cells/well, before carrying out serum starvation for 24 h. Cells were then treated for 24 h with either BDNF at 500 ng/mL (control) or the compounds at 1 μM.
(§2) For the cell toxicity assay, we used CellTox™ Green Dye (2,000 × , Promega) for the visualization of dead cells and Hoechst 33,342 solution (10,000 × ) for total cells. A ZEISS Axio Vert.A1 microscope was used for image capture, and the ImageJ software (https://imagej.nih.gov/ij/) was used for analysis. The number of CellTox positive cells was normalized against the total number of cells observed in each image.
The NIH-3T3 TrkB cell line, which is stable and transfected to specifically express the TrkB receptor, was used for the screening of the new compounds for their ability to protect cells from serum deprivation-induced apoptosis through the activation of the TrkB receptor. Cell death was induced by serum deprivation for 24 h and then BDNF (500 ng/mL), the native neurotrophin ligand of the TrkB receptor, or compounds ENT-A007, ENT-A009, ENTA025, ENT-A026, ENT-A033, ENT-A034, ENT-A035, ENT-A036, ENT-A037, ENT-A046, ENT-A047, ENT-A055, and ENT-A056 (1 μM) were added to the media for 24 h.

[2] = target: T1, TrkB (Mus musculus, UniProt P15209); experiment: TrkB phosphorylation assay in primary astrocytes (Western blot); format: cell-based; settings: compound 1 μM, 20 min, after 6 h serum starvation, BDNF 500 ng/mL as control
T1 construct: primary cortical astrocytes from 2-day-old mice (as a natively TrkB-expressing neuronal population); endogenous in cells; host or cells: primary cortical astrocytes from C57B/6 mouse pups (P2)
Method: as §1
Cells were plated in 12 well plates, at a density of 100,000 cells per well, with 6 h of serum deprivation carried out on the following day. To assess the effect of compounds on TrkB phosphorylation, 20-min treatments were applied, using either BDNF at 500 ng/mL (Peprotech 450-02) (positive control) or compounds at 1 μM.
Cell lysis for 10 min was carried out on ice using the Pierce IP Lysis Buffer by Thermo Scientific and a phospho-protease inhibitor cocktail by Millipore. After adding loading buffer (5 × Laemni), 25 μg from each protein sample were incubated for 5 min at 95°C and subjected to SDS-PAGE. Proteins were transferred to a nitrocellulose membrane at 350 mA for 2 h. Membrane blocking was performed using 5% bovine serum albumin (BSA) at room temperature for 1 h, before adding the primary antibodies to the blocking solution at 4°C overnight. HRP-conjugated secondary antibodies were used for the detection of chemiluminescence with ECL solution. Primary antibodies: Phospho-TrkB (Tyr816) Millipore # ABN1381, and Anti-TrkB Abcam #ab33655.
Mixed glial cultures were isolated from the cortex of C57B/6 pups at post-natal day 2 (P2). Cells were plated in a medium containing high-glucose DMEM, 200 U/mL penicillin, 200 μg/mL streptomycin, and 10% fetal bovine serum (FBS). When cells reach 100% confluency (7–8 days), the anti-mitotic agent Ara-C was added in the media at a final concentration of 10 μM, for 3 to 4 days to target the highly proliferative microglial cells. Ara-C was removed, and primary astrocytes (97% purity) were cultured at 5% CO2 and 37°C.
Cells were plated at 70–80% confluency. The next day, they were deprived of serum for 6 h and subsequently treated with 500 ng/mL BDNF or 1 μM of compounds for 20 min. Cells were then lysed in Pierce™ IP Lysis Buffer (87788, Thermo Fischer Scientific, Rockford, USA), containing proteases (539138, Calbiochem, Darmstadt, Germany), and phosphatase inhibitors (524629, Calbiochem, Darmstadt, Germany). Lysates were then suspended in an SDS loading buffer and subjected to Western blot against phosphorylated TrkB (1:1,000, ABN1381, Sigma-Aldrich, St. Louis, MO, USA) and total TrkB (1:1,000, 07-225-I, Sigma-Aldrich, St. Louis, MO, USA).

[3] = target: T2, CYP2C9 (Homo sapiens, UniProt P11712); experiment: Isozyme-specific CYP450 inhibition, CYP2C9; format: in vitro ADME; settings: 1 μM, 60 min, recombinant human CYP450 (Baculosomes)
T2 construct: purchased Thermo Fisher Scientific; host or cells: Baculosomes
Method: Human cytochrome P450 (CYP450) isoenzymes were expressed in Baculosomes®, purchased from Thermo Fisher Scientific (Waltham, MA, USA). All reagents were handled and prepared according to the manufacturer's protocol. Test compounds were assessed at 1 μM for their effects on CYP1A2, CYP2A6, CYP2C9, CYP2C19, CYP2D6, and CYP3A4. Approximately 1 μM was selected based on our ADMET standard operating procedures and protocols also published previously (Rogdakis et al., [2022]; Yilmaz et al., [2022]). CYP450-enzymatic activity was determined based on the kinetic model for each CYP450 isoform (Cohen et al., [2003]; Veith et al., [2009]). Reactions took place in triplicates at 20°C. For this, NADP^+ (10 mM in 100 mM potassium phosphate, pH 8.0) was converted into NADPH by the regeneration system present (glucose-6-phosphate at 333 mM and glucose-6-phosphate-dehydrogenase at 30 U/mL in 100 mM potassium phosphate, pH 8.0). Following the addition of the fluorescent substrate, signal monitoring over time took place immediately (<2 min) at suitable excitation and emission wavelengths (Agilent BioTek Lionheart FX). CYP450 inhibition (%) was determined based on the reaction rates (fluorescence intensity changes per unit time). In total, n = 60 measurements […] were acquired (t = 60 min).
% Inhibition=(1-X/A)×100%
X is the rate observed in the presence of the test compound.
A is the rate observed in the presence of the negative (solvent, DMSO) control.

[4] = tested on: PC12 cells; experiment: CellTox assay, survival of PC12 cells under serum deprivation; format: cell-based; settings: compound 500 nM, 24 h, after 4 h serum starvation; NGF 100 ng/mL as control (Figure 9)
Method: PC12 cells were obtained from LGC Promochem and cultured under specified conditions. Cells were grown in DMEM medium (Thermo Fischer Scientific, cat# 10566016) containing 10% horse serum (Thermo Fischer Scientific, cat# 16050122), 5% fetal bovine serum (Thermo Fischer Scientific, cat# 10270106), 100 units/mL penicillin, and 0.1 mg/mL streptomycin (Thermo Fischer Scientific, cat# 15140122) at 5% CO2 and 37°C. Cells were used between passages 5 and 20.
CellTox assay (G8742, Promega, Leiden, Belgium) was used to assess the survival of PC12 cells under serum deprivation conditions. PC12 cells were plated in 96-well plates, starved from serum for 4 h, and subsequently treated with NGF (100 ng/mL) or compound (500 nM) for 24 h. CellTox assay reagents and Hoescht (1:10,000, H3570, Invitrogen, Massachusetts, USA) were then added to each well for 30 min, and then, cells were imaged with a Zeiss AXIO Vert A1 fluorescent microscope. CellTox positive cells were normalized to the total number of cells for each image.
Initially, we tested compounds ENT-A002, ENT-A007, ENT-A009, ENTA025, ENT-A026, ENT-A033, ENT-A034, ENT-A035, ENT-A036, ENT-A037, ENT-A046, ENT-A047, ENT-A055, and ENT-A056 for their ability to protect PC12 cells from serum deprivation-induced cell death as well as for their ability to activate TrkA downstream pro-survival signaling kinases Akt and Erk1/2 (Figures 9A–C). We opted to employ PC12 cells, which express receptors TrkA and p75 and have been routinely used for investigating NGF-TrkA signaling. PC12 cells were subjected to a period of nutrient deprivation (without fetal bovine serum and horse serum in their culture medium) for 4 h. Following this, NGF (100 ng/mL) or one of the compounds (500 nM or 1 μM) was administered and allowed to interact with the cells for 24 h. Following that, CellTox and Hoescht dyes were added and cells were imaged to assess cell death. Control cases involved cells cultured in full medium (serum), cells under starvation conditions (serum-free), and cells under starvation conditions treated with DMSO (SF+DMSO).

[5] = tested on: NIH3T3 naive cells; experiment: CellTox assay in NIH3T3 naive cells under serum deprivation; format: cell-based; settings: compound 1 μM or BDNF 500 ng/mL, 24 h, after 18 h nutrient deprivation
Method: as §1, §2
These cells were treated with the compounds, or BDNF, for 24 h under starvation conditions. Control conditions included cells cultured with serum, serum-free conditions, and serum-free conditions supplemented with DMSO. The cells were subjected to a period of 18 h of nutrient deprivation before the treatments. […] Therefore, we infer that the involvement of the TrkB receptor is indeed essential for the cell-protective effects of ENT-A076, ENT-A087, and ENT-A088 (Figures 14A, B).

[6] = Metabolic stability in pooled human liver microsomes; format: in vitro ADME; settings: 1 μM; for residual of time zero: pooled human liver microsomes 0.5 mg/mL, t = 60 min, NADPH; for parent structure loss (depletion) class: pooled human liver microsomes, 60 min
Method: For metabolic stability assessment, pooled human liver microsomes were employed at 0.5 mg/mL. Incubation conditions were optimized to ensure linear metabolite formation with respect to protein concentration and reaction time. All test compounds were assessed at 1 μM based on our ADMET standard operating procedures and protocols, also published previously (1 μM was selected based on our ADMET standard operating procedures and protocols also published previously) (Rogdakis et al., [2022]; Yilmaz et al., [2022]). Approximately 1 mM of NADPH served as a cofactor. Reactions took place in triplicates at 37°C. Negative and positive controls (low vs. rapid clearance) were included for low vs. rapid clearance. After 60 min, reactions were terminated.
Parent structure loss is classified as very slow (<5%), slow (5–19%), moderate (20–50%), fast (50–80%), or very fast (>80%). Such categories have been defined according to set criteria, namely, high metabolism (t1/2 value of <30 min), moderate metabolism (30 min <t1/2 value of <60 min), and low metabolism (t1/2 value of >60 min) (EMA, [2012], [2013]; FDA, [2020]).

T1 sequence (P15209 32-821): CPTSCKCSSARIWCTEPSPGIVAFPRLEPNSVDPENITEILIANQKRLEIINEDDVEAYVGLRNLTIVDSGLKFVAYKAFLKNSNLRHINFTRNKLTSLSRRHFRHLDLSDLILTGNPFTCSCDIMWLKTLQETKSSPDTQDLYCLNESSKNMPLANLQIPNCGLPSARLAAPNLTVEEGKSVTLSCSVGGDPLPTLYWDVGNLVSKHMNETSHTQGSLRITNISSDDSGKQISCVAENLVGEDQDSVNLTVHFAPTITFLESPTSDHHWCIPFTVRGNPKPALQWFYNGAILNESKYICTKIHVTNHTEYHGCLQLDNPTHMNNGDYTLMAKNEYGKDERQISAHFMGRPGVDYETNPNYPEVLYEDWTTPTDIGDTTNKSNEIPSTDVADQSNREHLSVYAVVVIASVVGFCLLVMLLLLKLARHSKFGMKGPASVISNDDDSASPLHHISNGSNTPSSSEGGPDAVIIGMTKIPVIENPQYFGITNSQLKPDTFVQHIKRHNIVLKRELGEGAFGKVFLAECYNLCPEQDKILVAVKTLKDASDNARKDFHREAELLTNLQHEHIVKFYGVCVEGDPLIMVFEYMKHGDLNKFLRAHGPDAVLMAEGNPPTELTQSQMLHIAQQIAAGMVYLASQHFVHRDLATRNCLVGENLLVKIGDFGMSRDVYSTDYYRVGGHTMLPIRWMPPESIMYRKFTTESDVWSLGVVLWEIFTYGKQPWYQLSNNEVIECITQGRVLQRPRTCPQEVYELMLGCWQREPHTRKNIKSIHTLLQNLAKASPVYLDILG
T2 sequence (P11712 whole entry): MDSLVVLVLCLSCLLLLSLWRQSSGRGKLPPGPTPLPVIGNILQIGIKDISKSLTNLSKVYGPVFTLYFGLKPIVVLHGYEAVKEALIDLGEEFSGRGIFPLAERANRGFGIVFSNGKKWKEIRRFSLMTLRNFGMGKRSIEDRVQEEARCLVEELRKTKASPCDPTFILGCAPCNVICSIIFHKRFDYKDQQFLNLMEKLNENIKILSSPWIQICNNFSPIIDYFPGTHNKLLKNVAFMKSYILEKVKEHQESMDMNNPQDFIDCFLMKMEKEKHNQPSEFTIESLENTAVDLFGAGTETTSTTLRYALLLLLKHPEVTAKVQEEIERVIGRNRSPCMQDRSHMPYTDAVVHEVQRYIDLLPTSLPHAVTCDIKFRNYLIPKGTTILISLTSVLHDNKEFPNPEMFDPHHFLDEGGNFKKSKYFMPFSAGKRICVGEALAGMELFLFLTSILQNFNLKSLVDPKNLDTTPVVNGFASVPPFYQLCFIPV

| Molecule | protection of NIH-3T3-TrkB cells from serum deprivation-induced cell death (CellTox) [1] | phosphorylation levels of the TrkB receptor [2] | inhibition for CYP2C9 [3] | protection of PC12 cells from serum deprivation-induced cell death (CellTox) [4] | rescue of NIH3T3 naive cells (no neurotrophin receptors) from serum deprivation-induced cell death (CellTox) [5] | residual of time zero [6] [%] | parent structure loss (depletion) class [6] |
| --- | --- | --- | --- | --- | --- | --- | --- |
| CCOC(=O)C=CC1=CCC2(CCC3C4CC=C5CC(O)CCC5(C)C4CCC32C)OC1 [ENT-A007, Ethyl (E)-(3S,17R)-3-hydroxy-dihydrospiro[5-androstene-17,2′-pyran]-5′-yl-acrylate] | significantly reduce cell death levels compared to the serum-free control, comparable to the BDNF action | only ENT-A009 and ENT-A055 successfully increased phosphorylation levels of the TrkB receptor | moderate-to-strong inhibition | – | – | – | – |
| CN(C)Cc1cn(CC2=CC[C@@]3(CC[C@H]4[C@@H]5CC=C6C[C@@H](O)CC[C@]6(C)[C@H]5CC[C@@]43C)OC2)nn1 [ENT-A046, (3S,17R)-5′-[(4-((dimethylamino)methyl)-1H-1,2,3-triazol-1-yl)methyl]-3′,6′-dihydrospiro[5-androstene-17,2′-pyran]-3-ol] | significantly reduce cell death levels compared to the serum-free control, comparable to the BDNF action | only ENT-A009 and ENT-A055 successfully increased phosphorylation levels of the TrkB receptor | – | without showing any antiapoptotic activity in PC12 cells | – | – | – |
| C[C@]12CC[C@H](O)CC1=CC[C@@H]1[C@@H]2CC[C@@]2(C)[C@H]1CCC21CC(=O)C1 [ENT-A076, (3S)-3-hydroxy-spiro[5-androsten-17-cyclobutan]-3′-one] | demonstrated the ability to promote cell survival during serum starvation as well as BDNF | – | – | – | neither the compounds nor BDNF were able to rescue the cells from cell death | 95 | slow (slow (5–19%)) |
| COC(=O)C=C1CC2(CC[C@H]3[C@@H]4CC=C5C[C@@H](O)CC[C@]5(C)[C@H]4CC[C@@]32C)C1 (stereo partly drawn) [ENT-A087] | demonstrated the ability to promote cell survival during serum starvation as well as BDNF | – | – | – | neither the compounds nor BDNF were able to rescue the cells from cell death | > 95 | very slow (very slow (<5%)) |
| B1 | – | – | – | – | neither the compounds nor BDNF were able to rescue the cells from cell death | – | – |
